Data reported in EP0831769B2, “NOVEL USES FOR THYROID HORMONES OR THYROID HORMONE-LIKE COMPOUNDS” (Lavin, Dr., Thomas N., priority 1995, dated 1996).
“And” between values parts separate entries of the source, which are not always exact repeats. Identical values can stand only once. “Also recorded” adds a separate entry of the source. Like-named read-outs stand apart in the source and are kept apart here.

Experiments:
human thyroid receptor = biological target: T1, human thyroid receptor (Homo sapiens, UniProt P10828); assay: Thyroid hormone receptor binding affinity
T1 sequence (P10828 1-461): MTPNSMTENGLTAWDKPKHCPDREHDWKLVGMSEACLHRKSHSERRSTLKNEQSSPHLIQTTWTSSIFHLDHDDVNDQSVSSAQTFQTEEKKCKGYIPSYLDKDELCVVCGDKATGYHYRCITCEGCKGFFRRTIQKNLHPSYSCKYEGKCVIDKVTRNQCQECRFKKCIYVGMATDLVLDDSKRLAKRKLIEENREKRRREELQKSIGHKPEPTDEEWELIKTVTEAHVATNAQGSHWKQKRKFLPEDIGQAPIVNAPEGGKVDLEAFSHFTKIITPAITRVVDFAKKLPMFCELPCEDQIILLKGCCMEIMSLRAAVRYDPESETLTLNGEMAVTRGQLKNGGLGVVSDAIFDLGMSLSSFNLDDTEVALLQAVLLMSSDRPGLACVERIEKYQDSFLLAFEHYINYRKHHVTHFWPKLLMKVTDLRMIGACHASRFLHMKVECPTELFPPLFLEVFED
Source text: Partial agonist/antagonists also may exist. (Suitable ligands may be agonists or antagonists).

Skin-2 model ZK1301 = assay: Skin-2 model: mRNA expression by RT-PCR, semi-quantitative;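 further: Three-dimensional human skin equivalent of dermal fibroblasts and foreskin keratinocytes at an air-liquid interface, exposed for 10 or 48 h, mRNA measured in total RNA by RT-PCR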
Source text: A novel synthetic human skin, Skin- 2 model ZK1301 (Advanced Tissue Sciences, La Jolla (USA)) is composed of a three dimensional human skin culture consisting of a dermal fibroblast layer and human foreskin keratinocytes which can be grown with an air-keratinocyte interface to promote normal differentiation and cornification of the model skin.
The following were components of the Skin^2 kits: 9x9 mm skin tissues on agarose, 6-well plates, and Millicell inserts. Two media based on Dulbecco's Modification of Eagle's medium were also included: Maintenance medium (containing 5% fetal calf serum) and serum-free assay medium.
All-trans-retinoic acid, 1,25-(OH)2-vitamin D3, and betamethasone were purchased from Sigma Chemicals (Stockholm). Upon arrival the skin tissues were placed dermal-side down into the center of a Millicell in a 6-well plate well containing prewarmed maintenance medium. The tissues were incubated at 37°C in an atmosphere of 5% CO2 in air. After 24 h the maintenance medium was exchanged.
Following another 24 h the Maintenance medium was removed and replaced by Serum- free assay medium containing 5% "stripped" fetal calf serum. Substances were added within 1 h after medium exchange and the tissues were incubated for 10 or 48 h in the presence of the substances. Medium and substances were changed after 24 h incubation. The cells were grown at an air - liquid interface. At the end of the 48 h-incubation period two tissues were pooled together in a sterile plastic centrifugation tube. The tissue was snap frozen on solid ice (-60°C) and stored at -70°C until used. Duplicate samples were included for each treatment.
Total RNA was extracted from Skin^2 -samples and human skin biopsies using Ultraspec II (Biotecx Laboratories, Inc., Houston, TX). One ml of Ultraspec II was added to each sample which were homogenized by using a Polytron for 2x20 sec at setting 6. Total RNA was extracted according to the protocol supplied by the manufacturer. […] After incubation at 37°C for 60 min, the reaction was stopped by heating at 75°C for 10 min and the mixture stored at -70°C until cDNA amplification was performed.
The tubes were placed in a Thermal cycler (Perkin-Elmer) programmed as follows: (a) 90°C for 90 s; (b) variable number of cycles (see Table 1) of the following sequential steps: 60 s at 94°C, 75 s at annealing temp (see Table 1), 90 s at 72°C; and (c) 7 min at 72°C. […] Gels were recorded by videoprints. The amount of product was estimated on the videopoint or directly on the gel. The amount of transcripts in each lane were compared in relation to two control samples run in parallel.

Hairless mice SKH-1 = assay: Photodamaged skin: UV-B irradiated hairless mice treated with cream for 16 weeks; format: in vivo; settings: cream for 16 weeks after 12 weeks of UV-B irradiation, compared to untreated irradiated animals
Description: Hairless mice SKH-1 are UV-B irradiated according to the schedule of (22). After 12 weeks of irradiation, significant wrinkling results. The mice are treated with the thyroid hormone Triac-containing cream for a period of 16 weeks after irradiation. The degree of wrinkling appearing on the irradiated mice is compared to untreated, irradiated animals to which the appropriate pharmaceutical base is not applied.

phosphodiesterase = settings: in vitro, isolated adipocytes; FR2354101; cited from earlier work
[1] = Table 3, Skin-2 model, 10uM, transcriptional response score
[2] = Table 3, Skin-2 model, 10uM, transcriptional response score, listed as L-T-I
[3] = Skin-2 model, 1 µM, semi quantitative mRNA change vs control
[4] = Skin-2 model, 50 nM, semi quantitative mRNA change vs control
[5] = Table 3, Skin-2 model, 50nM, transcriptional response score
[6] = Table 3, Skin-2 model, 1 µM, transcriptional response score

Compound	Ki (human thyroid receptor)	IL-6 (Skin-2 model ZK1301; [3])	col 1A-1 (Skin-2 model ZK1301; [3])	col 3A-1 (Skin-2 model ZK1301; [3])	crabp-II (Skin-2 model ZK1301; [3])	k1 (Skin-2 model ZK1301; [3])	k10 (Skin-2 model ZK1301; [3])	k16 (Skin-2 model ZK1301; [3])	k19 (Skin-2 model ZK1301; [3])	tgfbeta-2 (Skin-2 model ZK1301; [3])	trans gk (Skin-2 model ZK1301; [3])	col a-1 (Skin-2 model ZK1301; [6])	col a-3 (Skin-2 model ZK1301; [6])	gf(pdgf-L) (Skin-2 model ZK1301; [6])	k1 (Skin-2 model ZK1301; [6])	k16 (Skin-2 model ZK1301; [6])	trans gk (Skin-2 model ZK1301; [6])	k10 (Skin-2 model ZK1301; [6])	scce (Skin-2 model ZK1301; [6])	further results
N[C@@H](Cc1ccc(Oc2ccc(O)cc2)c(I)c1)C(=O)O [L-T-1, 3-idodo-L-Thronine]	20000 nM	–	–	–	–	–	–	–	–	–	–	–	–	–	–	–	–	–	–	binding to the thyroid hormone receptor (in words) (human thyroid receptor; b58: even at the tested ten micromolar concentration): no thyroid hormone receptor binding activity; also recorded: binds poorly; col a-1 (Skin-2 model ZK1301; [1]): 0.5; col a-3 (Skin-2 model ZK1301; [1]): 0.5; gf(pdgf-L) (Skin-2 model ZK1301; [1]): 1; k1 (Skin-2 model ZK1301; [1]): 0; k10 (Skin-2 model ZK1301; [1]): 0; k16 (Skin-2 model ZK1301; [1]): 0; scce (Skin-2 model ZK1301; [1]): 1; trans gk (Skin-2 model ZK1301; [1]): 1; col a-1 (Skin-2 model ZK1301; [2]): only modest effects; col a-3 (Skin-2 model ZK1301; [2]): only modest effects; k1 (Skin-2 model ZK1301; [2]): no inhibition; k10 (Skin-2 model ZK1301; [2]): no inhibition; scce (Skin-2 model ZK1301; [2]): positive effect; trans gk (Skin-2 model ZK1301; [2]): positive effect
CC1=C(/C=C/C(C)=C/C=C/C(C)=C/C(=O)O)C(C)(C)CCC1 [RA, All-trans-retinoic acid]	–	-1	2	1	1	-3	-1	-0.5	-1	2	-3	–	–	–	–	–	–	–	–	ctgf(pdgf-L) (Skin-2 model ZK1301; [3]): 1
O=C(O)Cc1cc(I)c(Oc2ccc(O)c(I)c2)c(I)c1 [Triac, tri-iodothyroacetic acid]	–	-0.5	2	1	-1	-2	-2	-0.5	-1	2	-3	1	1	2 and 1	-1	0	-0.5	–	–	skin collagen (Hairless mice SKH-1): increase; wrinkle pattern of the animals (Hairless mice SKH-1): significant decrease; dose range at which phosphodiesterase inhibition and cyclic AMP increase occur (phosphodiesterase): approximately 10^-4 M; ctgf(pdgf-L) (Skin-2 model ZK1301; [4]): 1; k16 (Skin-2 model ZK1301; [4]): -1; k19 (Skin-2 model ZK1301; [4]): -1; scce (Skin-2 model ZK1301; [3]): -2; k1 (Skin-2 model ZK1301; [5]): -2; k16 (Skin-2 model ZK1301; [5]): 0
C[C@H]1C[C@H]2[C@@H]3CCC4=CC(=O)C=C[C@]4(C)[C@@]3(F)[C@@H](O)C[C@]2(C)[C@@]1(O)C(=O)CO [betameth, betamethasone]	–	-2	0.5	-0.5	-1	-3	-0.5	-1	-0.5	0	-1	–	–	–	–	–	–	–	–	ctgf(pdgf-L) (Skin-2 model ZK1301; [3]): 1; scce (Skin-2 model ZK1301; [3]): -1
N[C@@H](Cc1cc(I)c(Oc2ccc(O)c(I)c2)c(I)c1)C(=O)O [compound number 1, Trilodothyronine]	–	–	–	–	–	–	–	–	–	–	–	1	2	1	-2	0	0	-0.5	0.5	–
O=C(O)c1cc(I)c(Oc2ccc(O)c(I)c2)c(I)c1 [compound number 2]	0.1 nM	–	–	–	–	–	–	–	–	–	–	2	1	1	-1	0	0.5	0	0.5	–
N[C@@H](Cc1cc(I)c(Oc2cc(I)c(O)c(I)c2)c(I)c1)C(=O)O [compound number 3, Thyroxine]	–	–	–	–	–	–	–	–	–	–	–	2	0.5	1	-2	0	1	-1	0	–
NC(Cc1cc(Br)c(Oc2ccc(O)c(Cc3ccc(=O)[nH]n3)c2)c(Br)c1)C(=O)O (stereo not shown) [compound number 5]	8 nM	–	–	–	–	–	–	–	–	–	–	0	0	–	–	-0.5	–	–	–	relative selectivity of gene responses (Skin-2 model ZK1301; Skin-2 model, 1 µM, epidermal differentiation genes versus collagen genes): relative selectively for keratin 1, tranglutaminase K and SCCE responses over collagen responses
Cc1cc(C[C@H](N)C(=O)O)cc(C)c1Oc1ccc(O)c(C(C)C)c1 [compound number 6, 1-3,5-Dimethyl-3'-isopropylthyronine]	–	–	–	–	–	–	–	–	–	–	–	1	0.5	1	-2	0	-2	-1	-1	Ki (human thyroid receptor; Table 3, binding affinity to the human thyroid receptor, read-out: Ki): 75 nM
Cc1cc(NC(=O)C(=O)O)cc(C)c1Oc1ccc(O)c(C(C)C)c1 [compound number 7, N-[3,5-Dimethy-4-(4'-hydroxy-3'-isopropylphenoxy)-phenyl]oxamic Acid]	0.1 nM	–	–	–	–	–	–	–	–	–	–	1	1	1	-1	0.5	-1	1	-1	–
C=C1C(=CC=C2CCCC3(C)C2CCC3C(C)CCCC(C)(C)O)CC(O)CC1O (stereo not shown) [vit D, 1,25-(OH)2-vitamin D3]	–	-1	2	2	-1	0	-1	0	0	2	-1	–	–	–	–	–	–	–	–	ctgf(pdgf-L) (Skin-2 model ZK1301; [3]): 0; scce (Skin-2 model ZK1301; [3]): 0
